system: CAL-120; assay: drug sensitivity score (DSS), CellTox Green (DSS (AUC-based score)); higher = stronger drug effect (viability inhibition or cytotoxicity); extreme values may be limits of the assay; settings: incubation time: 72 h
Procedure, shortened: (§1)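 In 384-well plates, compound was laid out at 5 concentrations in 10-fold steps over a 10,000-fold range specific to each compound, and breast cancer cell lines were seeded on top in 20 µl suspension for a 72 h incubation. CellTox Green fluorescence and then CellTiter-Glo luminescence were read, and each plate was normalised to 0.1 % DMSO and a positive kill control. The drug sensitivity score was calculated from the area under the fitted dose-response curve.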

SMILES	drug sensitivity score
O=C(c1ccc(OCCN2CCCCC2)cc1)c1c(-c2ccc(O)cc2)sc2cc(O)ccc12 [Raloxifene]	1.42
COc1c(C)cnc(Cn2cnc3c(Cl)nc(N)nc32)c1C [BIIB021]	0

system: CAL-148; assay: as above; settings: incubation time: 72 h
Procedure, shortened: as §1

SMILES	drug sensitivity score
Cc1cc(C(C)Nc2ccccc2)c2nc(N3CCOCC3)cc(=O)n2c1 (centres undefined) [TGX-221]	0
CC(C)C[C@H](NC(=O)[C@H](Cc1ccccc1)NC(=O)c1cnccn1)B(O)O [Bortezomib]	13.5
O=C(c1ccc(OCCN2CCCCC2)cc1)c1c(-c2ccc(O)cc2)sc2cc(O)ccc12 [Raloxifene]	0
COc1c(C)cnc(Cn2cnc3c(Cl)nc(N)nc32)c1C [BIIB021]	16

system: CAL-51; assay: as above; settings: incubation time: 72 h
Procedure, shortened: as §1

SMILES	drug sensitivity score
Cc1cc(C(C)Nc2ccccc2)c2nc(N3CCOCC3)cc(=O)n2c1 (centres undefined) [TGX-221]	0
CC(C)C[C@H](NC(=O)[C@H](Cc1ccccc1)NC(=O)c1cnccn1)B(O)O [Bortezomib]	18.7
O=C(c1ccc(OCCN2CCCCC2)cc1)c1c(-c2ccc(O)cc2)sc2cc(O)ccc12 [Raloxifene]	0
COc1c(C)cnc(Cn2cnc3c(Cl)nc(N)nc32)c1C [BIIB021]	5.48

system: CAL-85-1; assay: as above; settings: incubation time: 72 h
Procedure, shortened: as §1

SMILES	drug sensitivity score
Cc1cc(C(C)Nc2ccccc2)c2nc(N3CCOCC3)cc(=O)n2c1 (centres undefined) [TGX-221]	0
CC(C)C[C@H](NC(=O)[C@H](Cc1ccccc1)NC(=O)c1cnccn1)B(O)O [Bortezomib]	27.8
O=C(c1ccc(OCCN2CCCCC2)cc1)c1c(-c2ccc(O)cc2)sc2cc(O)ccc12 [Raloxifene]	0
COc1c(C)cnc(Cn2cnc3c(Cl)nc(N)nc32)c1C [BIIB021]	6.72

system: DU-4475; assay: as above; settings: incubation time: 72 h
Procedure, shortened: as §1

SMILES	drug sensitivity score
Cc1cc(C(C)Nc2ccccc2)c2nc(N3CCOCC3)cc(=O)n2c1 (centres undefined) [TGX-221]	0
CC(C)C[C@H](NC(=O)[C@H](Cc1ccccc1)NC(=O)c1cnccn1)B(O)O [Bortezomib]	2.21
O=C(c1ccc(OCCN2CCCCC2)cc1)c1c(-c2ccc(O)cc2)sc2cc(O)ccc12 [Raloxifene]	0
COc1c(C)cnc(Cn2cnc3c(Cl)nc(N)nc32)c1C [BIIB021]	4.2

system: HCC1143; assay: as above; settings: incubation time: 72 h
Procedure, shortened: as §1

SMILES	drug sensitivity score
Cc1cc(C(C)Nc2ccccc2)c2nc(N3CCOCC3)cc(=O)n2c1 (centres undefined) [TGX-221]	0
CC(C)C[C@H](NC(=O)[C@H](Cc1ccccc1)NC(=O)c1cnccn1)B(O)O [Bortezomib]	6.67
O=C(c1ccc(OCCN2CCCCC2)cc1)c1c(-c2ccc(O)cc2)sc2cc(O)ccc12 [Raloxifene]	0
COc1c(C)cnc(Cn2cnc3c(Cl)nc(N)nc32)c1C [BIIB021]	0

system: HCC1599; assay: as above; settings: incubation time: 72 h
Procedure, shortened: as §1

SMILES	drug sensitivity score
Cc1cc(C(C)Nc2ccccc2)c2nc(N3CCOCC3)cc(=O)n2c1 (centres undefined) [TGX-221]	0
CC(C)C[C@H](NC(=O)[C@H](Cc1ccccc1)NC(=O)c1cnccn1)B(O)O [Bortezomib]	0
O=C(c1ccc(OCCN2CCCCC2)cc1)c1c(-c2ccc(O)cc2)sc2cc(O)ccc12 [Raloxifene]	0.798
COc1c(C)cnc(Cn2cnc3c(Cl)nc(N)nc32)c1C [BIIB021]	0

system: HCC1937; assay: as above; settings: incubation time: 72 h
Procedure, shortened: as §1

SMILES	drug sensitivity score
Cc1cc(C(C)Nc2ccccc2)c2nc(N3CCOCC3)cc(=O)n2c1 (centres undefined) [TGX-221]	0
CC(C)C[C@H](NC(=O)[C@H](Cc1ccccc1)NC(=O)c1cnccn1)B(O)O [Bortezomib]	21.4
O=C(c1ccc(OCCN2CCCCC2)cc1)c1c(-c2ccc(O)cc2)sc2cc(O)ccc12 [Raloxifene]	0
COc1c(C)cnc(Cn2cnc3c(Cl)nc(N)nc32)c1C [BIIB021]	0

system: HDQ-P1; assay: as above; settings: incubation time: 72 h
Procedure, shortened: as §1

SMILES	drug sensitivity score
Cc1cc(C(C)Nc2ccccc2)c2nc(N3CCOCC3)cc(=O)n2c1 (centres undefined) [TGX-221]	11.9
CC(C)C[C@H](NC(=O)[C@H](Cc1ccccc1)NC(=O)c1cnccn1)B(O)O [Bortezomib]	20.1
O=C(c1ccc(OCCN2CCCCC2)cc1)c1c(-c2ccc(O)cc2)sc2cc(O)ccc12 [Raloxifene]	1.26
COc1c(C)cnc(Cn2cnc3c(Cl)nc(N)nc32)c1C [BIIB021]	3.67

system: MCF-10A; assay: as above; settings: incubation time: 72 h
Procedure, shortened: as §1

SMILES	drug sensitivity score
Cc1cc(C(C)Nc2ccccc2)c2nc(N3CCOCC3)cc(=O)n2c1 (centres undefined) [TGX-221]	1.09
CC(C)C[C@H](NC(=O)[C@H](Cc1ccccc1)NC(=O)c1cnccn1)B(O)O [Bortezomib]	7.83
O=C(c1ccc(OCCN2CCCCC2)cc1)c1c(-c2ccc(O)cc2)sc2cc(O)ccc12 [Raloxifene]	0
COc1c(C)cnc(Cn2cnc3c(Cl)nc(N)nc32)c1C [BIIB021]	15.3

system: MDA-MB-231; assay: as above; settings: incubation time: 72 h
Procedure, shortened: as §1

SMILES	drug sensitivity score
Cc1cc(C(C)Nc2ccccc2)c2nc(N3CCOCC3)cc(=O)n2c1 (centres undefined) [TGX-221]	0.585
CC(C)C[C@H](NC(=O)[C@H](Cc1ccccc1)NC(=O)c1cnccn1)B(O)O [Bortezomib]	22.4
O=C(c1ccc(OCCN2CCCCC2)cc1)c1c(-c2ccc(O)cc2)sc2cc(O)ccc12 [Raloxifene]	0
COc1c(C)cnc(Cn2cnc3c(Cl)nc(N)nc32)c1C [BIIB021]	6.24

system: MDA-MB-436; assay: as above; settings: incubation time: 72 h
Procedure, shortened: as §1

SMILES	drug sensitivity score
Cc1cc(C(C)Nc2ccccc2)c2nc(N3CCOCC3)cc(=O)n2c1 (centres undefined) [TGX-221]	0
CC(C)C[C@H](NC(=O)[C@H](Cc1ccccc1)NC(=O)c1cnccn1)B(O)O [Bortezomib]	16.6
O=C(c1ccc(OCCN2CCCCC2)cc1)c1c(-c2ccc(O)cc2)sc2cc(O)ccc12 [Raloxifene]	0
COc1c(C)cnc(Cn2cnc3c(Cl)nc(N)nc32)c1C [BIIB021]	0

system: MDA-MB-468; assay: as above; settings: incubation time: 72 h
Procedure, shortened: as §1

SMILES	drug sensitivity score
Cc1cc(C(C)Nc2ccccc2)c2nc(N3CCOCC3)cc(=O)n2c1 (centres undefined) [TGX-221]	0
CC(C)C[C@H](NC(=O)[C@H](Cc1ccccc1)NC(=O)c1cnccn1)B(O)O [Bortezomib]	33.3
O=C(c1ccc(OCCN2CCCCC2)cc1)c1c(-c2ccc(O)cc2)sc2cc(O)ccc12 [Raloxifene]	0
COc1c(C)cnc(Cn2cnc3c(Cl)nc(N)nc32)c1C [BIIB021]	0

system: MFM-223; assay: as above; settings: incubation time: 72 h
Procedure, shortened: as §1

SMILES	drug sensitivity score
Cc1cc(C(C)Nc2ccccc2)c2nc(N3CCOCC3)cc(=O)n2c1 (centres undefined) [TGX-221]	0
CC(C)C[C@H](NC(=O)[C@H](Cc1ccccc1)NC(=O)c1cnccn1)B(O)O [Bortezomib]	12.5
O=C(c1ccc(OCCN2CCCCC2)cc1)c1c(-c2ccc(O)cc2)sc2cc(O)ccc12 [Raloxifene]	0
COc1c(C)cnc(Cn2cnc3c(Cl)nc(N)nc32)c1C [BIIB021]	0

— the supplement of paper PMC4862054
